Laboratory results as given in patent US20250270200A1, “CTPS1 INHIBITORS AND USES THEREOF” (Nimbus Clotho, Inc., priority 2022, published 2025).

Molecular target: T1, human CTPS1 (Homo sapiens, UniProt P17812)
T1 sequence (P17812 1-591): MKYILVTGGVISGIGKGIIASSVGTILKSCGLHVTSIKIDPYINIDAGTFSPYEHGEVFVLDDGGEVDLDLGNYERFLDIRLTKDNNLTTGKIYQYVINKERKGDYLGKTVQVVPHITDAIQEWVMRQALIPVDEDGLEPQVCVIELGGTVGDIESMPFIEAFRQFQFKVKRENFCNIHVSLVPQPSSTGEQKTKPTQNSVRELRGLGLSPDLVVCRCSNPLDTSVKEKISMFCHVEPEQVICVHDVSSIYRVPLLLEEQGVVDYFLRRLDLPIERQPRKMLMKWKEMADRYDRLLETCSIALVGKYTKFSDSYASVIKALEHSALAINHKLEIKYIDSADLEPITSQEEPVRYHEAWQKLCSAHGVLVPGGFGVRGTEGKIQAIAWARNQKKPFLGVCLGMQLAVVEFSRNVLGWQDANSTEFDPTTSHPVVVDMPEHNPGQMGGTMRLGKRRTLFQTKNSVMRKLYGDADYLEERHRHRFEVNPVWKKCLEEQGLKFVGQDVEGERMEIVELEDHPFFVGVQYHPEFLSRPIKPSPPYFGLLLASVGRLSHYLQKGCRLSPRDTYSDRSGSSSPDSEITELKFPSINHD
Test: ADP-Glo assay, human CTPS1 enzyme inhibition
Format: biochemical
Conditions: wild-type human CTPS1, 25 nM enzyme; ADP-Glo; read-out: ADP-Glo_WT_hCTPS1—25 nM_IC50 (IC50)
Protocol: The enzyme inhibitory activities of the compounds of the invention against the target of interest were determined using the ADP-Glo™ assay (Promega). Assays for human CTPS1 and CTPS2 were performed in 1× assay buffer containing 50 mM HEPES (Life Technologies), 10 mM Mg2+, 5 mM KCl, 2 mM DTT, 0.01% F-127, pH to 7.4 accordingly. All reagents are from Sigma-Aldrich, unless specified otherwise. Purified human full length active N-terminal FLAG-8×HIS-TEV tagged CTPS1 (UniprotKB—P17812, […]-CTPS1[1-591]) was generated using a mammalian expression system at Viva Biotech (Shanghai) Ltd.
Purified human CTPS1 protein was prepared in 1× assay buffer to the final working protein concentration required for the reaction. A 2.5 μL volume per well of human CTPS 1 protein was mixed with 0.1 μL per well of test compound dissolved in DMSO and pre-incubated at 25 degrees C. for 10 minutes. 2.5 μL per well of the reaction precursors ATP (UltraPure ATP from ADP-Glo™ kit) and UTP were then added and pre-incubated for an additional 10 minutes at 25 degrees C. Finally, the reaction was initiated by the addition of 5 μL of the reaction precursors L-glutamine and GTP. The final concentration of all reaction components in the assay: ATP (120 μM), UTP (160 μM), GTP (60 μM), L-Glutamine (100 μM), DMSO (1%), hCTPS1 (25 nM). This mixture was incubated for an appropriate amount of time within the determined linear phase of the reaction at 25 degrees C. under sealed plate conditions with constant agitation at 500 revolutions per minute (rpm). ADP-Glo™ reagent was added for 60 minutes (10 μL per well) and subsequently ADP-Glo™ development reagent was added for 60 minutes (20 μL per well) prior to signal detection in a microplate reader (Envision Multilabel Reader, Perkin Elmer). Following each reagent addition over the course of the assay, assay plates were pulse centrifuged for 1 minute at 1000 rpm.
The enzyme converts ATP to ADP and the ADP-Glo™ reagent subsequently depletes any remaining ATP in the reaction system. The ADP-Glo™ detection reagents converts the ADP that has been produced by the enzyme back into ATP, which is then utilized as a substrate together with luciferin for the enzyme luciferase. Light generated by this chemiluminescent reaction is quantified and is directly proportional to the amount of ADP produced by the CTPS1 enzyme reaction. […]

Row | Structure (SMILES) | IC50
1 | CCOc1cncc(-c2cnc(C(=O)N[C@@H](c3cc(NS(=O)(=O)C4CC4)ccn3)C3CCOCC3)s2)n1 [I-19, (R)—N-((4-(cyclopropanesulfonamido)pyridin-2-yl)(tetrahydro-2H-pyran-4-yl)methyl)-5-(6-ethoxypyrazin-2-yl)thiazole-2-carboxamide] | 5 to 25 nM
2 | CCOc1cncc(-c2cnc(C(=O)N[C@H](c3cc(NS(=O)(=O)C4CC4)ccn3)C3CCOCC3)s2)n1 [I-20, (S)—N-((4-(cyclopropanesulfonamido)pyridin-2-yl)(tetrahydro-2H-pyran-4-yl)methyl)-5-(6-ethoxypyrazin-2-yl)thiazole-2-carboxamide] | 5 to 25 nM
3 | CCOc1cncc(-c2cnc(C(=O)N[C@H](COC)c3nccc(NS(=O)(=O)C4CC4)n3)s2)n1 [I-21, (S)-N-(1-(4-(cyclopropanesulfonamido)pyrimidin-2-yl)-2-methoxyethyl)-5-(6-ethoxypyrazin-2-yl)thiazole-2-carboxamide] | 5 to 25 nM
4 | CCOc1cncc(-c2cnc(C(=O)N[C@@H](c3cc(NS(=O)(=O)C4CC4)ccn3)C(C)(C)CN(C)C)s2)n1 [I-43, (R)-N-(1-(4-(cyclopropanesulfonamido)pyridin-2-yl)-3-(dimethylamino)-2,2-dimethylpropyl)-5-(6-ethoxypyrazin-2-yl)thiazole-2-carboxamide] | 5 to 25 nM
5 | CCOc1cncc(-c2cnc(C(=O)N[C@@H](c3cc(NS(=O)(=O)C4CC4)ccn3)[C@H](C)OC)s2)n1 [I-44, N-((1S,2S)-1-(4-(cyclopropanesulfonamido)pyridin-2-yl)-2-methoxypropyl)-5-(6-ethoxypyrazin-2-yl)thiazole-2-carboxamide] | 5 to 25 nM
6 | CCOc1cncc(-c2cnc(C(=O)N[C@H](c3cc(NS(=O)(=O)C4CC4)ccn3)[C@@H](C)OC)s2)n1 [I-45, N-((1R,2R)-1-(4-(cyclopropanesulfonamido)pyridin-2-yl)-2-methoxypropyl)-5-(6-ethoxypyrazin-2-yl)thiazole-2-carboxamide] | 5 to 25 nM
7 | CCOc1cncc(-c2cnc(C(=O)N[C@@H](c3cc(NS(=O)(=O)C4CC4)ccn3)[C@@H](C)OC)s2)n1 [I-46, N-((1S,2R)-1-(4-(cyclopropanesulfonamido)pyridin-2-yl)-2-methoxypropyl)-5-(6-ethoxypyrazin-2-yl)thiazole-2-carboxamide] | 5 to 25 nM
8 | CCOc1cncc(-c2cnc(C(=O)NC(CC(C)(C)N(C)C)c3cc(NS(=O)(=O)C4CC4)ccn3)s2)n1 (stereo not drawn) [I-48, N-(1-(4-(cyclopropanesulfonamido)pyridin-2-yl)-3-(dimethylamino)-3-methylbutyl)-5-(6-ethoxypyrazin-2-yl)thiazole-2-carboxamide] | 5 to 25 nM
9 | CCOc1cncc(-c2cnc(C(=O)N[C@H](CC(C)(C)N(C)C)c3cc(NS(=O)(=O)C4CC4)ccn3)s2)n1 [I-49, (R)-N-(1-(4-(cyclopropanesulfonamido)pyridin-2-yl)-3-(dimethylamino)-3-methylbutyl)-5-(6-ethoxypyrazin-2-yl)thiazole-2-carboxamide] | 50 to 100 nM
10 | CCOc1cncc(-c2cnc(C(=O)N[C@@H](CC(C)(C)N(C)C)c3cc(NS(=O)(=O)C4CC4)ccn3)s2)n1 [I-50, (S)-N-(1-(4-(cyclopropanesulfonamido)pyridin-2-yl)-3-(dimethylamino)-3-methylbutyl)-5-(6-ethoxypyrazin-2-yl)thiazole-2-carboxamide] | 5 to 25 nM
11 | C[C@@H](CN1CCCCC1)[C@@H](NC(=O)c1ncc(-c2cnn3ccc(Cl)cc23)s1)c1cc(NS(=O)(=O)C2CC2)ccn1 [I-55, 5-(5-chloropyrazolo[1,5-a]pyridin-3-yl)-N-((1R,2S)-1-(4-(cyclopropanesulfonamido)pyridin-2-yl)-2-methyl-3-(piperidin-1-yl)propyl)thiazole-2-carboxamide] | 50 to 100 nM
12 | C[C@H](CN1CCCCC1)[C@H](NC(=O)c1ncc(-c2cnn3ccc(Cl)cc23)s1)c1cc(NS(=O)(=O)C2CC2)ccn1 [I-57, 5-(5-chloropyrazolo[1,5-a]pyridin-3-yl)-N-((1S,2R)-1-(4-(cyclopropanesulfonamido)pyridin-2-yl)-2-methyl-3-(piperidin-1-yl)propyl)thiazole-2-carboxamide] | 5 to 25 nM
13 | C[C@@H](CN1CCCCC1)[C@H](NC(=O)c1ncc(-c2cnn3ccc(Cl)cc23)s1)c1cc(NS(=O)(=O)C2CC2)ccn1 [I-58, 5-(5-chloropyrazolo[1,5-a]pyridin-3-yl)-N-((1S,2S)-1-(4-(cyclopropanesulfonamido)pyridin-2-yl)-2-methyl-3-(piperidin-1-yl)propyl)thiazole-2-carboxamide] | 50 to 100 nM
14 | CCOc1cncc(-c2cnc(C(=O)N[C@H](c3cc(NS(=O)(=O)C4CC4)ccn3)[C@H]3CCCO3)s2)n1 [I-59, N-((R)-(4-(cyclopropanesulfonamido)pyridin-2-yl)((R)-tetrahydrofuran-2-yl)methyl)-5-(6-ethoxypyrazin-2-yl)thiazole-2-carboxamide] | 25 to 50 nM
15 | CCOc1cncc(-c2cnc(C(=O)N[C@H](c3cc(NS(=O)(=O)C4CC4)ccn3)[C@@H]3CCCO3)s2)n1 [I-60, N-((R)-(4-(cyclopropanesulfonamido)pyridin-2-yl)((S)-tetrahydrofuran-2-yl)methyl)-5-(6-ethoxypyrazin-2-yl)thiazole-2-carboxamide] | 5 to 25 nM
16 | CCOc1cncc(-c2cnc(C(=O)N[C@@H](c3cc(NS(=O)(=O)C4CC4)ccn3)[C@@H]3CCCO3)s2)n1 [I-61, N-((S)-(4-(cyclopropanesulfonamido)pyridin-2-yl)((S)-tetrahydrofuran-2-yl)methyl)-5-(6-ethoxypyrazin-2-yl)thiazole-2-carboxamide] | 5 to 25 nM
17 | CCOc1cncc(-c2cnc(C(=O)N[C@@H](c3cc(NS(=O)(=O)C4CC4)ccn3)[C@H]3CCCO3)s2)n1 [I-62, N-((S)-(4-(cyclopropanesulfonamido)pyridin-2-yl)((R)-tetrahydrofuran-2-yl)methyl)-5-(6-ethoxypyrazin-2-yl)thiazole-2-carboxamide] | 5 to 25 nM
18 | CCOc1cncc(-c2cnc(C(=O)N(C)[C@H](c3cc(NS(=O)(=O)C4CC4)ccn3)[C@H]3CCOC3)s2)n1 [I-63, N-((S)-(4-(cyclopropanesulfonamido)pyridin-2-yl)((R)-tetrahydrofuran-3-yl)methyl)-5-(6-ethoxypyrazin-2-yl)-N-methylthiazole-2-carboxamide] | > 100 nM
19 | CCOc1cncc(-c2cnc(C(=O)N(C)[C@H](c3cc(NS(=O)(=O)C4CC4)ccn3)[C@@H]3CCOC3)s2)n1 [I-64, N-((S)-(4-(cyclopropanesulfonamido)pyridin-2-yl)((S)-tetrahydrofuran-3-yl)methyl)-5-(6-ethoxypyrazin-2-yl)-N-methylthiazole-2-carboxamide] | 50 to 100 nM
20 | CCOc1cncc(-c2cnc(C(=O)N(C)[C@@H](c3cc(NS(=O)(=O)C4CC4)ccn3)[C@H]3CCOC3)s2)n1 [I-65, N-((R)-(4-(cyclopropanesulfonamido)pyridin-2-yl)((R)-tetrahydrofuran-3-yl)methyl)-5-(6-ethoxypyrazin-2-yl)-N-methylthiazole-2-carboxamide] | > 100 nM
21 | CCOc1cncc(-c2cnc(C(=O)N(C)[C@@H](c3cc(NS(=O)(=O)C4CC4)ccn3)[C@@H]3CCOC3)s2)n1 [I-66, N-((R)-(4-(cyclopropanesulfonamido)pyridin-2-yl)((S)-tetrahydrofuran-3-yl)methyl)-5-(6-ethoxypyrazin-2-yl)-N-methylthiazole-2-carboxamide] | 25 to 50 nM
